The values that follow come from US20100173931A1, “HARMINE DERIVATIVES FOR REDUCING BODY WEIGHT” (OsteoGeneX Inc., priority 2009, published 2010).

The nature of the assay: Reduction of body weight with harmine in mice (intraperitoneal injection, 4 weeks). The note with it: intraperitoneal in saline, 4 weeks (30 days), initial body weight 30 g. In kind it is in vivo. The protocol: In order to determine the effect of harmine and harmine derivatives in reducing body weight, we administered harmine to mice and tracked their body weights for 4 weeks (30 days). Harmine was solublized in saline and administered via intraperitoneal injection. Animals were weighed weekly.
Mice (6 per group) were divided into seven groups and given one of the following treatments: • 1. 5 mg harmine/kg body weight (Low) • 2. 10 mg harmine/kg body weight (Med) • 3. 20 mg harmine/kg body weight (High) • 4. Saline • 5. 3 mg/kg body weight (Positive control 2) • 6. 5 mg/kg body weight (Positive control low) • 7. 10 mg/kg body weight (Positive control high)
Even at the low dose, the animals lost more than 5% of their body weight.

On to `COc1ccc2c(c1)[nH]c1c(C)nccc12` [harmine], for which the “reduction in body weight” value was 6% (highest dose 20 mg harmine/kg body weight) and “more than 5%” (low dose 5 mg harmine/kg body weight).
